Measurements: patent US11103605B2, “PET-imaging immunomodulators” (BRISTOL-MYERS SQUIBB COMPANY, priority 2016, dated 2021)

Experiment: Stability of reconstituted [^18F]-FPPEGA in 1× PBS buffer
Format: physicochemical
Details: 37° C.
Method: An aqueous [^18F]-Fluoride solution (2.0 ml, 33.3 GBq/900 mCi) was purchased from P.E.T. Net® Pharmaceuticals in West Point PA and directly transferred to a Sep-Pak light QMA [The Sep-Pak light QMA cartridge was pre-conditioned sequentially with 5 ml of 0.5 M potassium bicarbonate, 5 ml of deionized water, and 5 ml of MeCN before use.] Upon completion of this transfer, the aqueous [^18F] fluoride was released from the QMA Sep-Pak by the sequential addition of potassium carbonate (15 mg/ml; 0.1 ml) followed by a mixture of potassium carbonate (30 mg/ml, 0.1 ml), 4,7,13,16,21,24-hexaoxa-1,10-diazabicyclo[8.8.8]hexacosane (15 mg, 0.04 mmol) and 1.2 ml of MeCN. The solvent was evaporated under a gentle stream of nitrogen at 90° C. and vacuum. Azeotropic drying was repeated twice with 1 ml portions of acetonitrile to generate the anhydrous K.2.2.2/K[^18F]F complex. […] The entire contents of the crude reaction mixture was then transferred, loaded, and purified using reverse phase HPLC under the following conditions: HPLC Column: Luna C18 250×10 Solvent A: 0.1% TFA in DI water; solvent B: 0.1% TFA in acetonitrile at a flow rate of 4.6 ml/minute using isocratic method 32% B while the UV was monitored at 280 nm. […]

[N-]=[N+]=NCCOCCOCCOCCOc1cccnc1[18F] [[^18F]-3-(2-(2-(2-(2-azidoethoxy)ethoxy)ethoxy)ethoxy)-2-fluoropyridine]
stable in 100% 1× PBS buffer: over 1 hour
